This is an account of results in patent US20020015937A1, “Methods for inactivating viruses” (priority 2000, published 2002).

Common to all, as to type: cell-based
The subject of experiment [1] is bacteriophage MS2. The experiment can be described thus: Inactivation of bacteriophage MS2 in human blood plasma by pressure cycling and 1-(2-aminoethyl)aziridine (plaque assay on E. coli).
Experiment [2] has as its system Feline rhinotrachetis virus. The experiment can be described thus: Inactivation of feline rhinotrachetis virus in human blood plasma by pressure and HMT with UV (plaque assay on feline cells Fc3Tg). The method, then: The infectivity of the virus suspension is determined by duplicate plaque assays on cultured feline cells, Fc3Tg (ATCC CCL 176) with a methylcellulose overlay. The sample is split into four aliquots and are treated as follows: 1) aliquot 1—no treatment; […] 4) aliquot 4—nothing added and pressurized to 30,000 psi for 10 minutes. All samples are held at a temperature of 25° C. throughout the experiment. After treatment, the plasma is serially diluted, mixed with cultured feline cells and plated on agar.

Experiment [3] has as its system Feline rhinotrachetis virus. The experiment can be described thus: Inactivation of feline rhinotrachetis virus in human blood plasma by pressure cycling and S-59 with UV (plaque assay on feline cells).
Experiment [4] has as its system SV 40. Put plainly: Inactivation of SV 40 in human blood plasma by pressure cycling and DNase (plaque assay on primate cells).
In experiment [5] the test system is bacteriophage MS2. Put plainly: Inactivation of bacteriophage MS2 in human blood plasma by pressure and RNase (plaque assay on E. coli).

With `NCCN1CC1` [1-(2-aminoethyl)aziridine], the “reduction in viral titer, combination with pressure cycling versus sum of the reductions of the single treatments” value in experiment [1] (0.007 M 1-(2-aminoethyl)aziridine, 80,000 psi for 10 minutes, 20 cycles, 25° C., human blood plasma, 10^8 pfu per ml MS2) is on record as “significantly greater reduction in viral titer”. In addition, in experiment [1] (similar experiments with lower concentrations of 1-(2-aminoethyl)aziridine, with pressure cycling), the “viral inactivation under pressure cycling at lower concentrations” value is given as “equivalent viral inactivation with lower concentrations of 1-(2-aminoethyl)aziridine or with shorter incubation time”.
Regarding `Cc1oc2c(C)c3oc(=O)cc(C)c3cc2c1CO` [HMT, 4′-hydroxymethyl-4,5′,8-trimethylpsoralen], the “reduction in viral titer, combination with pressure versus sum of the reductions of the single treatments” value in experiment [2] (20 μg/ml HMT, 30,000 psi for 10 minutes, then longwave UV light (320 to 380 nm) 10 minutes, 25° C., human blood plasma, 2×10^7 pfu per ml) is listed as “significantly greater reduction in viral titer”. Moreover, the “viral inactivation under pressure at lower concentrations” value in experiment [2] (similar experiments with lower concentrations of HMT, with pressure) was “equivalent viral inactivation with lower concentrations”.
As for `Cc1oc2c(C)c3oc(=O)cc(C)c3cc2c1COCCN` [S-59, 4′-(4-amino-2-oxa)butyl-4,5′,8-trimethylpsoralen], the “reduction in viral titer, combination with pressure cycling versus sum of the reductions of the single treatments” value in experiment [3] (150 μM S-59, longwave UV light 10 minutes, 90,000 psi for 5 minutes, 24 cycles, then UV ten minutes, 25° C., human blood plasma, 2×10^7 pfu per ml) is reported as “significantly greater reduction in viral titer”. In addition, in experiment [3] (similar experiments with lower concentrations of S-59, with pressure cycling), the “viral inactivation under pressure cycling at lower concentrations” value was “equivalent viral inactivation with lower concentrations”.
For DNase, the “reduction in viral titer, combination with pressure cycling versus sum of the reductions of the single treatments” value in experiment [4] (20 μg/ml DNase I, 90,000 psi for 10 minutes, 25 cycles, 37° C., human blood plasma, 10^8 pfu per ml SV 40) was “significantly greater reduction in viral titer”. The “viral inactivation under pressure cycling at lower concentrations” value in experiment [4] (similar experiments with lower concentrations of DNase, with pressure cycling) is recorded as “equivalent viral inactivation with lower concentrations of DNase or with shorter incubation time”.

B1: RNase: ribonuclease, enzyme that hydrolyzes RNA; RNase A used at 10 μg/ml (protein, UniProt P61823 27-150, looked up)
Ribonuclease pancreatic: KETAAAKFERQHMDSSTSAASSSNYCNQMMKSRNLTKDRCKPVNTFVHESLADVQAVCSQKNVACKNGQTNCYQSYSTMSITDCRETGSSKYPNCAYKTTQANKHIIVACEGNPYVPVHFDASV
Consider B1, for which the “reduction in viral titer, combination with pressure versus sum of the reductions of the single treatments” value in experiment [5] (10 μg/ml RNase A, 25,000 psi for 20 minutes, 37° C., human blood plasma, 10^8 pfu per ml MS2) is on record as “significantly greater reduction in viral titer”. Besides, the “viral inactivation under pressure at lower concentrations” value in experiment [5] (similar experiments with lower concentrations of RNase, with pressure) is recorded as “equivalent viral inactivation with lower concentrations of RNase or with shorter incubation time”.
